Measurements: US20050245527A1, “Nitrogen containing heterocyclic compounds and medicines containing the same” (priority 2002, published 2005)
Where a name gives a salt, the structure may show the parent alone.

Each molecule was assayed on left saphenous nerve of rats (ectopic firing) (assay: Inhibition of ectopic firing). Conditions: Rattus norvegicus, iv; rats with cut left saphenous nerve, urethane anesthesia, compound via catheter in right cervical vein, number of firings in 10 seconds; read-out: Inhibition of ectopic firing (ID50).
Assay type: in vivo
Method: <Inhibition of Ectopic Firing>
(1) The inhibitory effect on ectopic firing was evaluated by the following method, with reference to Burchiel, K J., Exp. Neurol., 102, 249-253 (1988).
(2) The left saphenous nerve of rats, in which ectopic firing was observed, was cut near the knee joint, and approximately 3 mm was cut off to avoid reattachment of the cut nerve. After more than a week, the left saphenous nerve was exposed under urethane (1 g/kg body weight) anesthesia, and the proximal part up to approximately 1 cm from the cut site was detached from the surrounding tissue. A catheter was inserted in the right cervical vein beforehand for administration of the compound.
(3) The detached nerve was placed on a platinum hook electrode and wetted with liquid paraffin to avoid drying of the nerve. The electrode was connected to a microelectrode amplifier, and the change in potential was recorded from an oscilloscope through an A/D converter onto a computer. The recorded nerve firing was evaluated based on the number of firings in 10 seconds, using analyzing software (AcqKnowledge).

Row | SMILES | ED50
1 | O=c1[nH]ccnc1CN1CCC(COCc2ccccc2F)CC1 [Example 160, 3-[4-(2-Fluorobenzyloxymethyl)piperidino]methyl-1H-pyrazin-2-one] | 0.5 to 1 mg/kg
2 | Cc1ccccc1OCC1CCN(Cc2ncc[nH]c2=O)C1.O=C(O)C(=O)O (stereo not drawn) [Example 136, 3-[3-(2-Methylphenoxymethyl)pyrrolidino]methyl-1H-pyrazin-2-one oxalate] | 0.5 to 1 mg/kg
3 | O=c1[nH]cccc1CN1CCC(O)(C#Cc2ccccc2F)CC1 [Example 258, 3-[4-Hydroxy-4-[(2-fluorophenyl)ethynyl]piperidino]methyl-1H-pyridin-2-one] | < 0.5 mg/kg
4 | O=c1[nH]cccc1CN1CCC(CCc2ccccc2)(COc2ccccc2F)CC1 [Example 257, 3-[4-(2-Fluorophenoxymethyl)-4-(2-phenylethyl)piperidino]methyl-1H-pyridin-2-one] | < 0.5 mg/kg
5 | O=c1cncc(CCN2CCC(COc3ccc(F)cc3)CC2)[nH]1 [Example 246, 6-[2-[4-(4-Fluorophenoxymethyl)piperidino]ethyl]-1H-pyrazin-2-one] | 0.5 to 1 mg/kg
6 | O=c1[nH]ccnc1CCN1CCC(COc2ccccc2F)CC1 [Example 232, 3-[2-[4-(2-Fluorophenoxymethyl)piperidino]ethyl]-1H-pyrazin-2-one] | < 0.5 mg/kg
7 | O=c1[nH]cncc1CN1CCC(COc2ccccc2F)CC1 [Example 230, 5-[4-(2-Fluorophenoxymethyl)piperidino]methyl-3H-pyrimidin-4-one] | < 0.5 mg/kg
8 | O=c1[nH]ccnc1CN1CCC(CC(F)c2ccccc2F)CC1 (stereo not drawn) [Example 178, 3-[4-[2-Fluoro-2-(2-fluorophenyl)ethyl]piperidino]methyl-1H-pyrazin-2-one] | < 0.5 mg/kg
9 | Cc1ccccc1C#CC1(O)CCN(Cc2ccc[nH]c2=O)CC1 [Example 259, 3-[4-Hydroxy-4-[(2-methylphenyl)ethynyl]piperidino]methyl-1H-pyridin-2-one] | < 0.5 mg/kg
10 | O=c1nccc(CCN2CCC(COc3ccccc3F)CC2)[nH]1 [Example 181, 4-[2-[4-(2-Fluorophenoxymethyl)piperidino]ethyl]-3H-pyrimidin-2-one] | < 0.5 mg/kg
11 | O=c1cncc(CCN2CCC(/C=C/c3ccccc3F)CC2)[nH]1 [Example 234, (E)-6-[2-[4-(2-(2-Fluorophenyl)vinyl]piperidino]ethyl]-1H-pyrazin-2-one] | 0.5 to 1 mg/kg
12 | O=c1ccnc(CN2CCC(COc3ccccc3F)CC2)[nH]1 [Example 137, 2-[4-(2-Fluorophenoxymethyl)piperidino]methyl-3H-pyrimidin-4-one] | 0.5 to 1 mg/kg
13 | Cc1ccccc1OCC1(C#N)CCN(Cc2ccc[nH]c2=O)CC1 [Example 122, 1-(2-Oxo-1,2-dihydro-3-pyridylmethyl)-4-(2-methylphenoxymethyl)piperidine-4-carbonitrile] | < 0.5 mg/kg
14 | O=c1[nH]ccnc1CN1CCC(COc2ccc(F)cc2F)CC1 [Example 163, 3-[4-(2,4-Difluorophenoxymethyl)piperidino]methyl-1H-pyrazin-2-one] | < 0.5 mg/kg
15 | Cc1ccccc1OCC1(CCc2ccccc2F)CCN(Cc2ccc[nH]c2=O)CC1 [Example 128, 3-[4-[2-(2-Fluorophenyl)ethyl]-4-(2-methylphenoxymethyl)piperidino]methyl-1H-pyridin-2-one] | 0.5 to 1 mg/kg
16 | O=c1[nH]cccc1CN1CCC(CCc2ccccc2F)(COc2ccccc2F)CC1 [Example 127, 3-[4-(2-Fluorophenoxymethyl)-4-[2-(2-fluorophenyl)ethyl]piperidino]methyl-1H-pyridin-2-one] | 0.5 to 1 mg/kg
17 | Cc1ccccc1OCC1(O)CCN(Cc2ccc[nH]c2=O)CC1 [Example 252, 3-[4-Hydroxy-4-(2-methylphenoxymethyl)piperidino]methyl-1H-pyridin-2-one] | 0.5 to 1 mg/kg
18 | O=C(CC1CCN(Cc2ncc[nH]c2=O)CC1)c1ccccc1F [Example 139, 3-[4-[2-(2-Fluorophenyl)-2-oxoethyl]piperidino]methyl-1H-pyrazin-2-one] | 0.5 to 1 mg/kg
19 | O=c1[nH]ccnc1CN1CCC(OCc2ccccc2F)CC1 [Example 141, 3-[4-(2-Fluorobenzyloxy)piperidino]methyl-1H-pyrazin-2-one] | < 0.5 mg/kg
20 | O=C(Cc1ccccc1F)C1CCN(CCc2cncc(=O)[nH]2)CC1 [Example 237, 6-[2-[4-[2-(2-Fluorophenyl)acetyl]piperidino]ethyl]-1H-pyrazin-2-one] | 0.5 to 1 mg/kg
21 | O=c1cncc(CCN2CCC(COc3ccccc3F)CC2)[nH]1 [Example 233, 6-[2-[4-(2-Fluorophenoxymethyl)piperidino]ethyl]-1H-pyrazin-2-one] | < 0.5 mg/kg

The molecules below were run on sodium channels (assay: not given). Conditions: read-out: IC50 (μM), sodium channel-inhibiting activity; rat fetal cultured hippocampal neurons, SBFI fluorescence in the presence of 4-aminopyridine, 5 minutes after addition, 1 μM tetrodotoxin = 100%.
Assay type: cell-based

Row | SMILES | IC50
22 | O=c1[nH]ccnc1CN1CCC(COCc2ccccc2F)CC1 [Example 160, 3-[4-(2-Fluorobenzyloxymethyl)piperidino]methyl-1H-pyrazin-2-one] | 3.5 µM
23 | Cc1ccccc1OCC1CCN(Cc2ncc[nH]c2=O)C1.O=C(O)C(=O)O (stereo not drawn) [Example 136, 3-[3-(2-Methylphenoxymethyl)pyrrolidino]methyl-1H-pyrazin-2-one oxalate] | 4.7 µM
24 | O=c1[nH]cccc1CN1CCC(O)(C#Cc2ccccc2F)CC1 [Example 258, 3-[4-Hydroxy-4-[(2-fluorophenyl)ethynyl]piperidino]methyl-1H-pyridin-2-one] | 4.2 µM
25 | O=c1[nH]ccnc1CN1CCC(CC(O)c2ccccc2F)CC1 (stereo not drawn) [Example 144, 3-[4-[2-(2-Fluorophenyl)-2-hydroxyethyl]piperidino]methyl-1H-pyrazin-2-one] | 5.8 µM
26 | O=c1[nH]ccnc1CN1CCC(c2nc(-c3ccc(F)cc3)no2)CC1 [Example 189, 3-[4-[3-(4-Fluorophenyl)-1,2,4-oxadiazol-5-yl]piperidino]methyl-1H-pyrazin-2-one] | 7.2 µM
27 | COC(Cc1ccccc1F)C1CCN(Cc2ncc[nH]c2=O)CC1 (stereo not drawn) [Example 190, 3-[4-[2-(2-Fluorophenyl)-1-methoxyethyl]piperidino]methyl-1H-pyrazin-2-one] | 1.2 µM
28 | CC1(COc2ccccc2F)CCN(Cc2ncc[nH]c2=O)CC1 [Example 406, 3-[4-(2-Fluorophenoxymethyl)-4-methylpiperidino]methyl-1H-pyrazin-2-one] | 3 µM
29 | O=c1cncc(CCN2CCCC(COc3ccccc3F)C2)[nH]1 (stereo not drawn) [Example 117, 6-[2-[3-(2-Fluorophenoxymethyl)piperidino]ethyl]-1H-pyrazin-2-one] | 4.4 µM
30 | O=C(Cc1ccccc1-c1ccccc1)C1CCN(Cc2ncc[nH]c2=O)CC1 [Example 359, 3-[4-[2-(2-Biphenyl)acetyl]piperidino]methyl-1H-pyrazin-2-one] | 1.4 µM
31 | Cc1ccccc1OCC1(C)CCN(Cc2ncc[nH]c2=O)CC1 [Example 355, 3-[4-Methyl-4-(2-methylphenoxymethyl)piperidino]methyl-1H-pyrazin-2-one] | 2.5 µM
32 | O=c1cncc(CCN2CCC(COc3cccc(F)c3)CC2)[nH]1 [Example 238, 6-[2-[4-(3-Fluorophenoxymethyl)piperidino]ethyl]-1H-pyrazin-2-one] | 5.6 µM
33 | O=C(Cc1ccccc1OC(F)(F)F)C1CCN(Cc2ncc[nH]c2=O)CC1 [Example 345, 3-[4-[2-[2-(Trifluoromethoxy)phenyl]acetyl]piperidino]methyl-1H-pyrazin-2-one] | 2.1 µM
34 | CCOC(=O)C1(CCc2ccccc2)CCN(Cc2ncc[nH]c2=O)CC1 [Example 216, 3-[4-(Ethoxycarbonyl)-4-(2-phenylethyl)piperidino]methyl-1H-pyrazin-2-one] | 3.2 µM
35 | C[C@@H]1CN(Cc2ncc[nH]c2=O)CC[C@H]1C(=O)Cc1ccccc1F (relative stereo) [Example 366, trans-3-[4-[2-(2-Fluorophenyl)acetyl]-3-methylpiperidino]methyl-1H-pyrazin-2-one] | 4.2 µM
36 | O=c1[nH]ccnc1CN1CCOC(/C=C/c2ccccc2F)C1 (stereo not drawn) [Example 341, (E)-3-[3-[2-(2-Fluorophenyl)vinyl]morpholin-1-yl]methyl-1H-pyrazin-2-one] | 7.1 µM
37 | O=c1[nH]ccnc1CN1CCC(CO)(CCc2ccccc2)CC1 [Example 219, 3-[4-Hydroxymethyl-4-(2-phenylethyl)piperidino]methyl-1H-pyrazin-2-one] | 1.6 µM
38 | O=C(Cc1ccccc1Br)C1CCN(Cc2ncc[nH]c2=O)CC1 [Example 362, 3-[4-[2-(2-Bromophenyl)acetyl]piperidino]methyl-1H-pyrazin-2-one] | 4.5 µM
39 | O=c1[nH]ccnc1CN1CCC(CS(=O)(=O)c2ccccc2F)CC1 [Example 338, 3-[4-[(2-Fluorophenylsulfonyl)methyl]piperidino]methyl-1H-pyrazin-2-one] | 9.8 µM
40 | Cc1ccccc1CCC1(O)CCN(Cc2ccc[nH]c2=O)CC1 [Example 125, 3-[4-Hydroxy-4-[2-(2-methylphenyl)ethyl]piperidino]methyl-1H-pyridin-2-one] | 5 µM
41 | CCCOc1ccccc1CC(=O)C1CCN(Cc2ncc[nH]c2=O)CC1 [Example 348, 3-[4-[2-(2-n-Propoxyphenyl)acetyl]piperidino]methyl-1H-pyrazin-2-one] | 2.6 µM
42 | O=c1cncc(CCN2CCC(COc3cccc(F)c3F)CC2)[nH]1 [Example 242, 6-[2-[4-(2,3-Difluorophenoxymethyl)piperidino]ethyl]-1H-pyrazin-2-one] | 6.2 µM
43 | CC(c1ncc[nH]c1=O)N1CCC(COc2ccccc2F)CC1 (stereo not drawn) [Example 395, 3-[1-[4-(2-Fluorophenoxymethyl)piperidino]ethyl]-1H-pyrazin-2-one oxalate] | 6.7 µM
44 | CC(Oc1ccccc1F)C1CCN(Cc2ncc[nH]c2=O)CC1 (stereo not drawn) [Example 175, 3-[4-[1-(2-Fluorophenoxy)ethyl]piperidino]methyl-1H-pyrazin-2-one] | 2.6 µM
45 | O=c1[nH]ccnc1CN1CCC(/C=C/c2ccccc2OCC2CCCCC2)CC1 [Example 412, (E)-3-[4-[2-[2-(Cyclohexylmethyloxy)phenyl]vinyl]piperidino]methyl-1H-pyrazin-2-one oxalate] | 1.2 µM
